Laboratory results taken from ChEMBL document CHEMBL4190315, “Novel cinnamamide-dibenzylamine hybrids: Potent neurogenic agents with antioxidant, cholinergic, and neuroprotective properties as innovative drugs for Alzheimer's disease” (Eur J Med Chem, 2017).
The source made the active and inactive calls. The rule behind the calls is not given here.

Columns and labels:
[1] = Selectivity index, ratio of IC50 for equine serum BChE to IC50 for electric eel AChE
[2] = Antioxidant activity assessed as inhibition of AAPH-induced peroxyl radical generation measured as trolox equivalent preincubated for 15 mins followed by AAPH addition measured every min for 120 mins by ORAC-FL assay; format: functional
[3] = biological target: Cholinesterase (Equus caballus, UniProt P81908); assay: Inhibition of equine serum BChE using S-butyrylthiocholine iodide as substrate preincubated for 5 mins followed by substrate addition measured up to 180 secs by spectrophotometric analysis
[4] = biological target: Acetylcholinesterase (Electrophorus electricus, UniProt O42275); assay: Inhibition of electric eel AChE using acetylthiocholine iodide as substrate preincubated for 5 mins followed by substrate addition measured up to 180 secs by spectrophotometric analysis
[5] = biological target: Amyloid-beta precursor protein (Homo sapiens) (UniProt P05067); assay: Inhibition of HFIP pretreated amyloid beta (1 to 42) (unknown origin) self-aggregation at 20 uM after 48 hrs by thioflavin T fluorescence assay relative to control
[6] = biological target: Cholinesterase (Homo sapiens, UniProt P06276); assay: Inhibition of human serum BChE using S-butyrylthiocholine iodide as substrate preincubated for 5 mins followed by substrate addition measured up to 180 secs by spectrophotometric analysis
[7] = biological target: T1, Acetylcholinesterase (Homo sapiens, UniProt P22303); assay: Inhibition of human erythrocytic AChE using acetylthiocholine iodide as substrate preincubated for 5 mins followed by substrate addition measured up to 180 secs by spectrophotometric analysis
[8] = Effective permeability of compound at 50 ug/mL after 16 hrs by PAMPA-BBB assay
[9] = biological target: Acetylcholinesterase (Electrophorus electricus) (UniProt O42275); assay: Inhibition of electric eel AChE at 0.001 to 100 uM using acetylthiocholine iodide as substrate preincubated for 5 mins followed by substrate addition measured up to 180 secs by spectrophotometric analysis relative to control
[10] = Inhibition of Cu2+-mediated aggregation of amyloid beta (1 to 42) (unknown origin) at 50 uM after 24 hrs by thioflavin T fluorescence assay relative to control
[11] = system: PC-12; assay: Neuroprotective activity against H2O2-induced oxidative damage in rat PC12 cells assessed as increase in cell viability at 25 uM preincubated for 2 hrs followed by H2O2 challenge measured after 24 hrs by MTT assay; format: functional, cell-based
[12] = system: PC-12; assay: Neuroprotective activity against H2O2-induced oxidative damage in rat PC12 cells assessed as increase in cell viability at 1.25 to 25 uM preincubated for 2 hrs followed by H2O2 challenge measured after 24 hrs by MTT assay; format: functional, cell-based
[13] = system: PC-12; assay: Cytotoxicity against rat PC12 cells at 1.25 to 50 uM after 24 hrs by MTT assay; format: cell-based; details: pc-12, 24 h
[14] = Metal chelating activity assessed as Zn2+-compound complex formation at 25 uM after 30 mins by UV-vis spectrophotometric method
[15] = Inhibition of Cu2+-mediated aggregation of amyloid beta (1 to 42) (unknown origin) assessed as reduction in fibril formation at 50 uM after 24 hrs by transmission electron microscopic analysis
[16] = system: Mus musculus; assay: Reversal of scopolamine-induced memory impairment in Kunming mouse assessed as increase in step-down latency time at 5 to 15 mg/kg, po administered 60 mins prior to training trial followed by scopolamine challenge at 30 mins post dose measured 24 hrs after training trial by passive avoidance test; format: functional, organism-based
[17] = Metal chelating activity assessed as mole fraction of compound required to show 1:2 stoichiometry for Cu2+-compound complex at 25 uM after 30 mins by Job's plot analysis
[18] = biological target: T1, Acetylcholinesterase; assay: Mixed-type inhibition of AChE (unknown origin) at 2.25 to 9 uM using acetylthiocholine iodide as substrate preincubated for 5 mins followed by substrate addition measured up to 180 secs by Lineweaver-Burk plot analysis
[19] = Metal chelating activity assessed as Fe3+-compound complex formation at 25 uM after 30 mins by UV-vis spectrophotometric method
[20] = Copper-chelating activity assessed as red shift by measuring maximum absorption at 25 uM after 30 mins by UV-vis spectrophotometric method (reference value: 230 nanometer)
[21] = system: Mus musculus; assay: Reversal of scopolamine-induced memory impairment in Kunming mouse assessed as increase in step-down latency time at 5 mg/kg, po administered 60 mins prior to training trial followed by scopolamine challenge at 30 mins post dose measured 24 hrs after training trial by passive avoidance test; format: functional, organism-based
[22] = Copper-chelating activity assessed as minimum absorption at 25 uM after 30 mins by UV-vis spectrophotometric method (reference value: 260 nanometer)
[23] = Metal chelating activity assessed as Fe2+-compound complex formation at 25 uM after 30 mins by UV-vis spectrophotometric method
[24] = biological target: Cholinesterase (Equus caballus) (UniProt P81908); assay: Inhibition of equine serum BChE at 0.001 to 100 uM using S-butyrylthiocholine iodide as substrate preincubated for 5 mins followed by substrate addition measured up to 180 secs by spectrophotometric analysis relative to control
Chain of Cholinesterase (Equus caballus) (P81908 whole entry): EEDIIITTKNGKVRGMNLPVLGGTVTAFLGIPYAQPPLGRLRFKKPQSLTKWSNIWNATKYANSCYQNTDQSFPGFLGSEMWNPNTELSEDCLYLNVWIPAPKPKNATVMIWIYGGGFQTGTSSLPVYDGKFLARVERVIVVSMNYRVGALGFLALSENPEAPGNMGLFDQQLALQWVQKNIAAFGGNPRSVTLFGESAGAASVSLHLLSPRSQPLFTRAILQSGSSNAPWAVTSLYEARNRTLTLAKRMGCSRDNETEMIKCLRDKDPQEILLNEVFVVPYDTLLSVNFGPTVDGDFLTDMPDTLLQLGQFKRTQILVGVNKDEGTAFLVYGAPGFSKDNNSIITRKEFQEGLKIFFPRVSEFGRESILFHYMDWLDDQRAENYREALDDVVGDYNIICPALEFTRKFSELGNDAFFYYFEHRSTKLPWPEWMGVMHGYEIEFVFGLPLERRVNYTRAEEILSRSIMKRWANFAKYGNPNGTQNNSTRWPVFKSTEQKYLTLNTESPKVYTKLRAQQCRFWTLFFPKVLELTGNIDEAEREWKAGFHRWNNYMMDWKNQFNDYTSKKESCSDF

Chain of Cholinesterase (Equus caballus, UniProt P81908) (P81908 whole entry): as above
T1 sequence (P22303 whole entry): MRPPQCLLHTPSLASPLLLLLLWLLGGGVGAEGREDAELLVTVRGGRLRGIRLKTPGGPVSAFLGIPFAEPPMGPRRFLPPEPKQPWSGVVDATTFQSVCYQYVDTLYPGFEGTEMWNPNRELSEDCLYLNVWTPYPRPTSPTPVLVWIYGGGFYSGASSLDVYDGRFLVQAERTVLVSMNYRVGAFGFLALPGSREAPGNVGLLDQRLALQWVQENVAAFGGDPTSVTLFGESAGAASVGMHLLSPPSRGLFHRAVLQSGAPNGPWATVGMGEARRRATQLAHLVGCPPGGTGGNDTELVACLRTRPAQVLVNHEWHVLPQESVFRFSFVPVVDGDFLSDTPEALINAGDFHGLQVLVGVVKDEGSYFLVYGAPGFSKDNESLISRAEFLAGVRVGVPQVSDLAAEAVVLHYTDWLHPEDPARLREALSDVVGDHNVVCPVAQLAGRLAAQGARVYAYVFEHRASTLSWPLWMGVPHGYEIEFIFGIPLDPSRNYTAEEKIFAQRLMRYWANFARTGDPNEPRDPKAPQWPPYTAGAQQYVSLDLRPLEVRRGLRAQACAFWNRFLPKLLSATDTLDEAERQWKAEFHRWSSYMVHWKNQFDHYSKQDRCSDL
Chain of Acetylcholinesterase (Electrophorus electricus, UniProt O42275) (O42275 whole entry): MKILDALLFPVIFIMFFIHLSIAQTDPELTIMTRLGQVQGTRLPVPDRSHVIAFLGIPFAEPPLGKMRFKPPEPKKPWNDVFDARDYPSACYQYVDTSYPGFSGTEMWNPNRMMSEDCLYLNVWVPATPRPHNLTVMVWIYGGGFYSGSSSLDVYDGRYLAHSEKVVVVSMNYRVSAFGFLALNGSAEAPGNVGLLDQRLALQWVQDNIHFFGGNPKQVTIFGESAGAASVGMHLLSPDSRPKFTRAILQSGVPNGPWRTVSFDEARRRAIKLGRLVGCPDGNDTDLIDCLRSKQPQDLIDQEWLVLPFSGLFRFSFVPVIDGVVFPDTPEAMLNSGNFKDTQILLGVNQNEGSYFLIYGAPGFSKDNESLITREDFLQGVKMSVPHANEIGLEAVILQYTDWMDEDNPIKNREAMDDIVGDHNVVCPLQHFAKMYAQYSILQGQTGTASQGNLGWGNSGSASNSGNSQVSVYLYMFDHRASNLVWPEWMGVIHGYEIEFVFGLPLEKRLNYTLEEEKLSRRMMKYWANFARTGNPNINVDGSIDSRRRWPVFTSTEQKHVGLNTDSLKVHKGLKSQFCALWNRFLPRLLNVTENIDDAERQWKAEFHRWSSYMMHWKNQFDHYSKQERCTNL
Chain of Cholinesterase (Homo sapiens, UniProt P06276) (P06276 whole entry): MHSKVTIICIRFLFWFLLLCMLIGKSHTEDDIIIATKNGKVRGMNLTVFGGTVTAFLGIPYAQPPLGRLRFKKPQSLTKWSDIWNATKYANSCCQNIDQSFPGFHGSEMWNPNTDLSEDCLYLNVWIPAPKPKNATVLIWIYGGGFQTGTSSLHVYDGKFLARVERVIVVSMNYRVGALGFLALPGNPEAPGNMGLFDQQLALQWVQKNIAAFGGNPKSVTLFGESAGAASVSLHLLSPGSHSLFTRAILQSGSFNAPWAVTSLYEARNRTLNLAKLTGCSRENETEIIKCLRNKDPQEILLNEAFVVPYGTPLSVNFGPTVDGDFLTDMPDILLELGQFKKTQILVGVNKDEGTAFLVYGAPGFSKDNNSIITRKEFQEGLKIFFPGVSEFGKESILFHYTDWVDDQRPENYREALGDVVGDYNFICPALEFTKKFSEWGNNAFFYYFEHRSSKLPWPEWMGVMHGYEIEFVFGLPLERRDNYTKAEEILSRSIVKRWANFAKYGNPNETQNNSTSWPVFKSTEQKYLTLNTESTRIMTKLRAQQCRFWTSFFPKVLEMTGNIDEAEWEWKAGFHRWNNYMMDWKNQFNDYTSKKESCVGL
Chain of Amyloid-beta precursor protein (Homo sapiens) (P05067 whole entry): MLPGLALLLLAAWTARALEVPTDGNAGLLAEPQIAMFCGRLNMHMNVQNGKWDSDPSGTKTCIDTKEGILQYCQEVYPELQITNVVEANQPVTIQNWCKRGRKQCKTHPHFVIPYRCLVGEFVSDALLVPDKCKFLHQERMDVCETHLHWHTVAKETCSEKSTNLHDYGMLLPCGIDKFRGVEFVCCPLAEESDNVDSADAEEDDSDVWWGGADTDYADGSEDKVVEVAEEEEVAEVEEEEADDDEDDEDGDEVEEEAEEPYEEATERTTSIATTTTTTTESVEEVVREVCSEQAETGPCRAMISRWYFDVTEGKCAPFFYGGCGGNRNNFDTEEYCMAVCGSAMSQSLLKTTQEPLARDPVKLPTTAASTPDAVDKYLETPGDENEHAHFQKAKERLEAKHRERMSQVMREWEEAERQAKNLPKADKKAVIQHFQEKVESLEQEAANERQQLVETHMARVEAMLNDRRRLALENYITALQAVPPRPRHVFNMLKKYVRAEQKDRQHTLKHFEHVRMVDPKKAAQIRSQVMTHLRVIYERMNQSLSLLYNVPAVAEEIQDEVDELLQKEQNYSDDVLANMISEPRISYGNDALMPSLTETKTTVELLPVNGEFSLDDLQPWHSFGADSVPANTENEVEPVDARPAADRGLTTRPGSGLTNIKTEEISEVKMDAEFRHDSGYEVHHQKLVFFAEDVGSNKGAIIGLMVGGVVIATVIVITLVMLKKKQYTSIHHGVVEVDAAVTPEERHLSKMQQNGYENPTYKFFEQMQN
Chain of Acetylcholinesterase (Electrophorus electricus) (O42275 24-633 limits assumed): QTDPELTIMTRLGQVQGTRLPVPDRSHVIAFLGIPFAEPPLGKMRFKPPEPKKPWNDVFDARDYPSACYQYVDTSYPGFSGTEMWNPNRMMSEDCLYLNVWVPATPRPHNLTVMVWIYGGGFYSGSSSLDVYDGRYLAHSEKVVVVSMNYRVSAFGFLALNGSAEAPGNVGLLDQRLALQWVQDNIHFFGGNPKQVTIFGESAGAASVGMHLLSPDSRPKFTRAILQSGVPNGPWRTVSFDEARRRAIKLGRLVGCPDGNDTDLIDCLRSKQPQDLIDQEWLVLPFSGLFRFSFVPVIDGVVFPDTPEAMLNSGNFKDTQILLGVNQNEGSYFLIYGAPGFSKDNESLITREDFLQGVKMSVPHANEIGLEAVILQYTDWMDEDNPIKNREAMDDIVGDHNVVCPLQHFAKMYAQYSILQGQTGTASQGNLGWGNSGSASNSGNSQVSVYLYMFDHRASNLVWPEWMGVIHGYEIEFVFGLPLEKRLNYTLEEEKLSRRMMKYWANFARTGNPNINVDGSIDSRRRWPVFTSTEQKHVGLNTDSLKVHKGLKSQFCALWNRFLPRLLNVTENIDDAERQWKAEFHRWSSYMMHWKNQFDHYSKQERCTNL

| SMILES | Ratio IC50 [1] | Activity [2] [equiv] | IC50 [3] [µM] | IC50 [4] [µM] | inhibition [5] [%] | IC50 [6] [µM] | IC50 [7] [µM] | Papp at 16 h, 50 ug/mL [8] [×10⁻⁶ cm/s] | also measured |
| --- | --- | --- | --- | --- | --- | --- | --- | --- | --- |
| CN(Cc1ccccc1)Cc1ccc(NC(=O)/C=C/c2ccccc2)cc1 | 1.55 | 1.1 | 8.21 | 5.27 | 56.8 | – | – | – | – |
| COc1ccc(/C=C/C(=O)Nc2ccc(CN(C)Cc3ccccc3)cc2)cc1OC | 1.9 | 1.28 | 3.72 | 1.94 | 56.6 | 1.56 | 2.96 | 7.56 | – |
| CCN(Cc1ccccc1)Cc1ccc(NC(=O)CCc2ccccc2)cc1 | – | 0.32 | 13.9 | – | 36.1 | – | – | – | inhibition [9]: 34% |
| COc1cc(/C=C/C(=O)O)ccc1O | – | 2.56 | – | – | – | – | – | – | – |
| CCN(Cc1ccccc1)Cc1ccc(NC(=O)Cc2ccccc2)cc1 | 1.5 | 0.26 | 13.9 | 6.63 | 38.1 | – | – | – | – |
| CCN(CC)CCCC(C)Nc1ccnc2cc(Cl)ccc12 (stereo not drawn) | – | – | – | – | – | – | – | – | inhibition [10]: 48.8% |
| COc1cc2cc(-c3ccc(CN(C)Cc4ccccc4)cc3)c(=O)oc2cc1OC | 315 | – | 12.4 | 0.04 | – | – | – | – | – |
| CCN(Cc1ccccc1)Cc1ccc(NC(=O)Cc2ccc(O)cc2)cc1 | 1.16 | 1.35 | 4.45 | 3.82 | 42.1 | 2.03 | 6.5 | – | – |
| COc1ccc2[nH]cc(CCNC(C)=O)c2c1 | – | – | – | – | – | – | – | – | Activity [11]: Active |
| CN(Cc1ccccc1)Cc1ccc(NC(=O)Cc2ccc(O)c(O)c2)cc1 | 1.36 | 3.26 | 2.28 | 1.68 | 40.5 | 0.95 | 4.63 | 3.9 | Activity [12]: Active; Activity [13]: Non-Toxic |
| COc1ccc(CC(=O)Nc2ccc(CN(C)Cc3ccccc3)cc2)cc1OC | 1.4 | 0.5 | 1.48 | 1.06 | 38.5 | 1.05 | 1.85 | – | – |
| CN(Cc1ccccc1)Cc1ccc(NC(=O)c2ccccc2)cc1 | – | 0.36 | 5.3 | – | 35.2 | – | – | – | inhibition [9]: 38% |
| CC(=O)[C@H]1CC[C@H]2[C@@H]3CCC4=CC(=O)CC[C@]4(C)[C@H]3CC[C@]12C [PROGESTERONE] | – | – | – | – | – | – | – | 8.62 | – |
| CCN(Cc1ccccc1)Cc1ccc(NC(=O)Cc2ccc(OC)c(O)c2)cc1 | 1.76 | 1.48 | 3.29 | 1.89 | 43.5 | 1.46 | 2.76 | – | – |
| CN(Cc1ccccc1)Cc1ccc(NC(=O)/C=C/c2ccc(O)c(O)c2)cc1 | 2.1 | 4.24 | 9.72 | 4.64 | 56.2 | 8.01 | 5.42 | 5.34 | Activity [14]: Active; inhibition [15]: Active; Activity [16]: Active; Activity (mole fraction) [17]: 0.67; inhibition [18]: Active; Activity [12]: Active; inhibition [10]: 87.4%; Activity [19]: Active; Activity [20]: 245 nm; Activity [21]: Active; Activity [13]: Non-Toxic; Activity [22]: 274 nm; Activity [23]: inactive |
| COc1ccc(/C=C/C(=O)Nc2ccc(CN(C)Cc3ccccc3)cc2)cc1 | 2.2 | 1.34 | 8.21 | 3.72 | 57.8 | 6.4 | 4.56 | – | – |

| SMILES | Ratio IC50 [1] | Activity [2] [equiv] | IC50 [3] [µM] | IC50 [4] [µM] | inhibition [5] [%] | IC50 [6] [µM] | IC50 [7] [µM] | Papp at 16 h, 50 ug/mL [8] [×10⁻⁶ cm/s] | also measured |
| --- | --- | --- | --- | --- | --- | --- | --- | --- | --- |
| COc1cc(/C=C/C(=O)Nc2ccc(CN(C)Cc3ccccc3)cc2)ccc1O | 2.2 | 2.86 | 8.78 | 3.99 | 56.8 | 5.12 | 8.32 | 6.21 | Activity [12]: Active; Activity [13]: Non-Toxic |
| CN1C(C(=O)Nc2ccccn2)=C(O)c2ccccc2S1(=O)=O [PIROXICAM] | – | – | – | – | – | – | – | 3.29 | – |
| Clc1cccc(Cl)c1N=C1NCCN1 [CLONIDINE] | – | – | – | – | – | – | – | 3.1 | – |
| COc1ccc(CC(=O)Nc2ccc(CN(C)Cc3ccccc3)cc2)cc1O | 2.29 | 1.5 | 2.4 | 1.05 | 42.5 | 1.29 | 3.04 | 4.37 | Activity [12]: Active; Activity [13]: Non-Toxic |
| CN(Cc1ccccc1)Cc1ccc(NC(=O)Cc2ccc(O)cc2)cc1 | 2.12 | 1.38 | 3.48 | 2.26 | 38.5 | 4.32 | 3.24 | – | – |
| CN(Cc1ccccc1)Cc1ccc(NC(=O)CCc2ccccc2)cc1 | – | 0.3 | 5.29 | – | 35.2 | – | – | – | inhibition [9]: 45% |
| NCCc1ccc(O)c(O)c1 [DOPAMINE] | – | – | – | – | – | – | – | 0.45 | – |
| CN(Cc1ccccc1)Cc1ccc(NC(=O)/C=C/c2ccc(O)cc2)cc1 | 1.95 | 2.13 | 9.5 | 4.85 | 56.6 | – | – | – | – |
| CN(Cc1ccccc1)Cc1ccc(NC(=O)Cc2ccccc2)cc1 | 1.63 | 0.38 | 5.28 | 3.24 | 33.5 | 4.95 | 5.8 | – | – |
| CCN(Cc1ccccc1)Cc1ccc(NC(=O)c2ccccc2)cc1 | – | 0.32 | 13.9 | – | 37.1 | – | – | – | inhibition [9]: 33% |
| CCN(Cc1ccccc1)Cc1ccc(NC(=O)Cc2ccc(O)c(O)c2)cc1 | 1.54 | 3.25 | 5.95 | 3.63 | 42.1 | 2.4 | 7.26 | 4.41 | Activity [12]: Active; Activity [13]: Non-Toxic |
| CN(Cc1ccccc1)Cc1ccc(NC(=O)/C=C/c2ccc(Cl)cc2)cc1 | – | 0.82 | – | – | 58.6 | – | – | – | inhibition [9]: 41%; inhibition [24]: 32% |
| CCN(Cc1ccccc1)Cc1ccc(NC(=O)Cc2ccc(OC)c(OC)c2)cc1 | 2.13 | 0.48 | 3.3 | 1.55 | 40.6 | 1.21 | 3.22 | – | – |
| CN(Cc1ccccc1)Cc1ccc(NC(=O)/C=C/c2ccc([N+](=O)[O-])cc2)cc1 | – | 0.8 | – | – | 52.8 | – | – | – | inhibition [9]: 35%; inhibition [24]: 24% |
| Cc1c(C)c2c(c(C)c1O)CCC(C)(C(=O)O)O2 (stereo not drawn) | – | – | – | – | – | – | – | – | Activity [11]: Active |
